These results are taken from a melting point compilation (Tetko et al.; mined from patent text by program, amines drawn as free bases though some values may be those of a salt).

Some results are limits rather than exact numbers.

What is called melting point is the temperature of the solid-liquid transition.

With `COc1ccc2c(c1)SCCC2=O`, the melting point is 49 to 51 °C.
For `OC(CCCc1ccccc1)c1ccc(OCc2ccc3ccccc3n2)cc1` (configuration not stated) the value was 118 to 119 °C; for `CN1C(=O)CCC(C)(C)c2cc(C(=O)Nc3ccc(C(=O)O)cc3)ccc21`, over 275 °C.
The result for `COC(=O)c1ccccc1-c1ccc(CN2C(=O)c3ccccc3C2=O)cc1` reads 148 to 150 °C; that for `CC(C)(C)COc1nc(N2CCNCC2)nc(N2CCS(=O)CC2)c1[N+](=O)[O-]`, 156 to 158 °C; that for `CN(C)C=C1CSc2ccc(Cl)cc2C1=O`, 126 to 127 °C.
The result for `CCC12CCC3=C(CCc4cc(OC)ccc43)C1CCC2=O` (configuration not stated) reads 110 to 125 °C.
The molecule `CC(C)(CC(=O)C(=O)Nc1ccc2c(c1)COC2=O)c1cccc(I)c1` displayed a melting point of 160 to 161 °C.
The result for `COc1ccc(C2CCCCC2)cc1-c1csc(NC(=O)N2CCN(C(=O)C3CCOCC3)CC2)n1` reads 276 °C; that for `NC1=NC(c2ccc(OC(F)(F)F)cc2)(c2cccc(-c3cccnc3F)c2)C2=NCCCCN12` (configuration not stated), 88 to 97 °C.
For `Cc1cc2c(cc1C)C(N)CC(C)(C)O2` (configuration not stated) the value was over 270 °C; for `COc1ccc(C=CC(=O)c2ccco2)c(OC)c1`, 57 to 59 °C.
For `CC#CCOc1ccc(S(=O)(=O)N(C)C(C(=O)NO)c2ccc(OCCCNS(C)(=O)=O)cc2)cc1` (configuration not stated) the value was 65 to 70 °C.
In the case of `COc1ccc(CN2CCC(c3ccc(-c4cccc(N)n4)cc3)CC2)cc1OC`, the melting point was in the range of 150 to 165 °C.
The result for `O=C1OC(Cc2ccc([N+](=O)[O-])cc2)C(=O)N1Cc1ccccc1` (configuration not stated) reads 92 to 93 °C; that for `CC(=O)NC[C@H]1CN(c2cc(F)c(N3CCN(C(=O)COCc4ccccc4)CC3)c(F)c2)C(=O)O1`, 172 to 173 °C; that for `COc1ccc(C[C@@H]2COc3ccc(OCc4nc5cc(F)ccc5s4)cc3[C@@H]2O)cc1C(=O)O` (relative stereo), 149 to 151 °C.
For `COc1ccccc1Sc1c(Cl)ncnc1NS(=O)(=O)c1ccc(C(C)(C)C)cc1` the value was 186 °C.
The result for `Cc1cc(C)c2nnn(C(=O)N3CCOCC3)c2c1` reads 115 °C.
Molecule `CNCC(O)COc1cc(-c2ccc(C)cc2)nc2cc(C)ccc12` (racemic) displayed a melting point of 146 to 150 °C.
The result for `CCN(CC)C(=O)n1cnc(S(=O)(=O)C(F)F)n1` reads 58 to 59 °C; that for `CCCNC(=O)C(C)Cc1ccc2c(c1)c(Cc1ccc(C(=O)NS(=O)(=O)c3ccccc3C)cc1OC)cn2CCC(=O)N(C)C` (configuration not stated), 120 to 132 °C; that for `COc1ccc(N2CCOCC2)c2sc(NC(=O)C[C@H]3CC[C@@H](OC(C)=O)C3)nc12` (relative stereo), 172 to 173 °C.
As for `O=C1NC(=O)C(c2ccccc2)(c2ccccc2)N2CCN(C(=O)OCc3ccccc3)CC12` (configuration not stated), the melting point lay within 151 to 152 °C.
The result for `O=C(O)c1coc2c(Cl)cc(Cl)cc2c1=O` reads 196 °C; that for `CCCCc1[nH]c(=O)c(C#N)cc1C(C)=O`, 195 to 197 °C; that for `O=C(O)CCc1cnoc1-c1cc(Cl)ccc1Cl`, 103 to 104 °C.
The result for `O=c1[nH]ncc2c1c(O)nc1ccc(Cl)c(Cl)c12` reads 270 °C.
Molecule `c1ccc(OCCSCc2nnc(-c3ccc(OCCCCN4CCCC4)cc3)o2)cc1` displayed a melting point of 45 °C.
For `CCOCc1nc2c(N)nc3cc(N4CCCC4=O)ccc3c2n1CCCOC(C)C` the value was 165 to 167 °C; for `Cc1cc(C)c2nc(NCCC(N)=O)n(Cc3nc(C)ccc3O)c2c1`, 229 °C; for `O=C(Cc1ccccc1)N1CC2CCC(C1)O2`, 106 °C.
The result for `CC(C)Cn1c(CN)c(-c2ccccc2)c2cc(OCC(N)=O)ccc2c1=O` reads 161 to 163 °C; that for `COC(=O)/C=C/c1c(-c2ccc(F)cc2)cccc1C(C)C`, 87 to 89 °C.
For `CC(C)(C)OC(=O)NCc1ccc(N2CC(C(=O)O)OC2=O)cc1` (configuration not stated) the value was 166 °C; for `CCOC(=O)c1cn2c3c(c(Cl)ccc3c1=O)N(C)CC2C` (configuration not stated), 259 to 261 °C; for `CCCCCCCCCCOc1ccc(NC(=O)c2ccc(O)cc2)cc1OCCCCCCCCCC`, 137 °C.
As to `O=c1[nH]c2ccccc2c(O)c1-c1csc(-c2ccncc2)n1`, the melting point was over 250 °C.
`CCCOc1ccccc1-c1ccc(N)c(=O)[nH]1`: the melting point was 158 to 161 °C.
Take `COC(=O)c1c(Br)cc(Br)cc1NC(=O)NCc1ccccc1`: the melting point is over 280 °C.
For `CC(C)(C)Oc1ccc(CCC(=O)OCc2ccc([N+](=O)[O-])cc2)cc1` the value was 30 to 32 °C; for `Fc1ccc(/C=C/c2nc(COc3ccc(CCCCn4ccnn4)cc3)co2)c(F)c1`, 115 to 117 °C.
For `CS[C@@H]1CC[C@H](C(=O)O)Cc2onc(-c3ccc(Cl)cc3)c21` (relative stereo), the melting point is 241 to 242 °C.
The result for `Cc1cc2c(c(C(C)(C)C)c1)OC(=O)C2OC(=O)CCc1cc(C(C)(C)C)c(O)c(C(C)(C)C)c1` (configuration not stated) reads 151 to 154 °C; that for `COC(=O)C(C)Oc1cccc(C=Cc2ccc3ccc(Br)cc3n2)c1` (configuration not stated), 101 to 102 °C; that for `O=S1(=O)NCN(C2CC2)c2cc(Br)cc(F)c21`, 195 to 198 °C.
For `CC12CC(c3ccc(C=O)cc3)C3=C4CCC(=O)C=C4CCC3C1CCC2O` (configuration not stated) the value was 197 to 200 °C; for `COc1ccc(CBr)c(CBr)c1`, 48 to 50 °C.
The result for `Cn1cc(C(=O)NCc2ccc(Cl)cc2)c(=O)c2cc(CN3CCOCC3)cc(C#CCN3CCS(=O)(=O)CC3)c21` reads 220 to 222 °C; that for `O=C(O)CCC(=O)c1cc2c(s1)CCc1ccccc1C2=O`, 167 to 168 °C; that for `CC(C)(C)OC(=O)NCC1CNC1`, 112 to 114 °C.
As for `O=C1[C@H]2CCC[C@H]2N(C(=O)CCCCBr)c2ccccc2N1Cc1ccccc1` (relative stereo), the melting point was in the range of 134 to 135 °C.
The result for `Nc1nc2c(ncn2COCCOC(=O)CCC(=O)O)c(=O)[nH]1` reads 203 to 207 °C; that for `C=CCNc1nc(C)c(C(=O)c2ccc(N)c([N+](=O)[O-])c2)s1`, 250 to 252 °C.
The result for `COC(=O)c1cc(-n2cnnc2)c(C(F)(F)F)cc1NC(C)=O` reads 180 to 184 °C; that for `Cc1cn(NCCCc2ccncc2F)c2ccc(OCc3ccccc3)cc12`, 94 to 96 °C.
The result for `O=[N+]([O-])c1ccc(N2CCN(Cc3ccccc3)S2(=O)=O)cc1` reads 164 to 165 °C; that for `CCCCCOc1ccc2c(c1)C=C(CNC(=O)CCC)CO2`, 90 °C.
The molecule `CCCC(=O)Nc1c2c(nc3ccccc13)CCCC2` came in with a melting point of 202 to 204 °C.
For `COC(=O)CC1CC(c2ccc(C#N)cc2F)=NO1` (configuration not stated) the value was 92 to 94 °C.
The result for `COc1ccc(N2C(=O)C(O[Si](C(C)C)(C(C)C)C(C)C)C2c2ccco2)cc1` (configuration not stated) reads 109 to 110 °C.
For `NC(=O)CCn1ccn(C2CCc3ccccc3C2)c1=S` (configuration not stated) the value was 180 to 181 °C; for `COc1ccc(OCCCCCc2cc(C)on2)c(Cl)c1`, 45 to 47 °C.
`CC(=O)Oc1ccc2c(c1)COc1c-2cc(Br)c2cc(OC(C)=O)ccc12` came in with a melting point of 192 to 194 °C.
`CC(C)(C)c1cc(C=C2SC(=S)N(C3CC3)C2=O)cc(C(C)(C)C)c1O`: the melting point lay within 158 to 168 °C.
For `O=C(O)C(Cc1ccc(C(F)(F)F)cc1Br)C(=O)O` the value was 80 to 82 °C; for `O=C1Cc2ccccc2Oc2ccc(CC(O)(P(=O)(O)O)P(=O)(O)O)cc21`, 228 °C.
The result for `COC1=C(OCCCc2ccccc2)c2c(C)ccnc2C(N)([N+](=O)[O-])C1` (configuration not stated) reads 91 to 91.5 °C; that for `COc1ccc(C(=O)NCCCN(CCCNC(=O)c2ccc(OC)cc2)C(=O)c2ccc(OC)cc2)cc1`, 117 to 119 °C; that for `COC(=O)c1cc(-c2ccc(OC)cc2)nn(CC(=O)Nc2ccc(SC)cc2)c1=O`, 130 to 132 °C.
For `COc1ccc(OC)c(C=CC(=O)Nc2cnc3c(C)cc(C)cc3c2-c2ccccc2Cl)c1` the value was 209 to 210 °C.
As for `FC(F)(F)c1cccc(-c2nnc(Cl)cc2Cl)c1`, the melting point lay within 80 to 81.5 °C.
The result for `O=c1[nH]c2cc(O)ccc2c2oc3ccccc3c12` reads over 300 °C; that for `CCCN(CO)c1nc(NCc2ccccc2)c2nc(Cl)n(C(C)C)c2n1`, 220 to 223 °C.
For `CN1CCc2nc3cc(Cl)ccc3c(-c3cccs3)c2C1` the value was 131 to 132 °C; for `O=S(=O)(Nc1cccc(OCc2ccc3ccccc3n2)c1)c1ccc(Cl)cc1`, 157 to 159 °C.
For `CS(=O)(=O)c1ccc(-c2nc(C(F)(F)F)nc(NN)c2-c2ccc(Cl)cc2)cc1` the value was 266 to 269 °C; for `O=S1C(c2cccc(-c3ccc(O)c(C45CC6CC(CC(C6)C4)C5)c3)n2)=CN=C1N1CCOCC1` (configuration not stated), 339 to 343 °C.
For `COc1cc(C(=O)NS(=O)(=O)c2ccccc2Cl)ccc1Cc1c(Cl)n(C)c2ccc(CC3CCN(C)C3=O)cc12` (configuration not stated), the melting point lay in the range of 126 to 134 °C.
For `N#CCCNC(=O)C1=CC(CF)(CF)Oc2ccc(C(F)(F)F)cc21` the value was 129 to 131 °C.
The result for `COc1cc(O)nc(C(C)(C)C)n1` reads 175 °C.
For `CN(C)CCNC(=O)Nc1ccc(-c2cnc(COCc3cc4ccccc4o3)o2)cc1` the value was 150 to 154 °C.
`Fc1ccc(-c2cc(C(S)(C(F)(F)F)C(F)(F)F)[nH]c2-c2ccc(F)cc2)cc1` registered a melting point of 114 to 115 °C.
The result for `Nc1ccc(-c2noc3cc(F)ccc23)cc1[N+](=O)[O-]` reads 239 °C; that for `Cn1c(C#N)ccc1-c1ccc2c(c1)C1(CCCCC1)C(=S)N2`, 269 to 272 °C; that for `CCCC(=O)c1nc(CCC)[nH]c1C#N`, 94 to 95 °C.
For `Cn1c(CNCC(C)(C)O)cc2cc(NC(=O)c3ccc(OCC4CCOC4)cc3)ccc21` (configuration not stated) the value was 169 °C.
